Laboratory results taken from patent publication US20230094952A1, “Method for Culturing Hematopoietic Stem Cells” (Sumitomo Pharma Co., Ltd., priority 2019, published 2023).

Tested on: mouse long-term hematopoietic stem cells
Experiment: Reproducibility and concentration dependence test: 1-week culture of sorted Hoxb5-tri-mCherry mouse long-term hematopoietic stem cells, flow cytometry
Format: cell-based
Conditions: day 7 of culture, n=2
Method in brief: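 Hoxb5-tri-mCherry+ LT-HSCs (Lin−c-Kit+Sca-1+Flk2−CD34−/lo CD150+) were sorted from mouse bone marrow at 10 cells/well into StemSpan SFEM with SCF and TPO. Cells were cultured with compound for 1 week at 37°C, 5% CO2. Flow cytometry then measured KLS and mCherry+ fractions and cell counts.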

Compound | KLS-positive rate (Table 4, compound 0.1 μM) [%] | Viable cell count (Table 4, compound 0.1 μM) [cell] | mCherry-positive rate (Table 4, compound 0.1 μM) [%] | KLS-positive rate (Table 4, compound 0.3 μM) [%] | Viable cell count (Table 4, compound 0.3 μM) [cell] | mCherry-positive rate (Table 4, compound 0.3 μM) [%] | KLS-positive rate (Table 4, compound 1 μM) [%] | Viable cell count (Table 4, compound 1 μM) [cell] | mCherry-positive rate (Table 4, compound 1 μM) [%] | KLS-positive rate (Table 4, compound 3 μM) [%] | Viable cell count (Table 4, compound 3 μM) [cell] | mCherry-positive rate (Table 4, compound 3 μM) [%] | KLS-positive rate (Table 4, compound 10 μM) [%] | Viable cell count (Table 4, compound 10 μM) [cell] | mCherry-positive rate (Table 4, compound 10 μM) [%] | further results
C[C@H]1[C@@H](F)O[C@@H]2O[C@@]3(C)CC[C@H]4[C@H](C)CC[C@@H]1[C@@]24OO3 [Example 1-1, (3R,5aS,6R,8aS,9R,10R,12S,12aR)-10-Fluoro-3,6,9-trimethyldecahydro-12H-3,12-epoxypyrano[4,3-j][1,2]benzodioxepine] | 46.5 | 477.0 | 0.5 | 0.0 | 0.0 | 0.0 | 0.0 | 0.5 | 50.0 | 0.0 | 0.0 | 0.0 | 0.0 | 0.0 | 0.0 | 
C[C@H]1[C@H](C(=O)O)O[C@@H]2O[C@@]3(C)CC[C@H]4[C@H](C)CC[C@@H]1[C@@]24OO3 [Example 1-8, (3R,5aS,6R,8aS,9R,10R,12R,12aR)-3,6,9-Trimethyldecahydro-12H-3,12-epoxypyrano[4,3-j][1,2]benzodioxepine-10-carboxylic acid] | 17.3 | 396.5 | 3.0 | 18.2 | 379.5 | 7.7 | 28.7 | 248.0 | 12.0 | 37.3 | 204.5 | 12.9 | 20.6 | 286.5 | 29.0 | 
C[C@H]1[C@@H](c2ccccc2)O[C@@H]2O[C@@]3(C)CC[C@H]4[C@H](C)CC[C@@H]1[C@@]24OO3 [Example 1-2, (3R,5aS,6R,8aS,9R,10S,12R,12aR)-3,6,9-Trimethyl-10-phenyldecahydro-12H-3,12-epoxypyrano[4,3-j][1,2]benzodioxepine] | 16.0 | 340.5 | 59.9 | 50.0 | 0.5 | 50.0 | 0.0 | 0.5 | 0.0 | 0.0 | 0.5 | 50.0 | 0.0 | 0.0 | 0.0 | 
C[C@H]1[C@@H](OC2CCCCC2)O[C@@H]2O[C@@]3(C)CC[C@H]4[C@H](C)CC[C@@H]1[C@@]24OO3 [Example 1-20, (3R,5aS,6R,8aS,9R,10S,12R,12aR)-10-(cyclohexyloxy)-3,6,9-trimethyldecahydro-12H-3,12-epoxypyrano[4,3-j][1,2]benzodioxepine] | 0.0 | 0.0 | 0.0 | 0.0 | 0.0 | 0.0 | 0.0 | 1.0 | 0.0 | 0.0 | 0.5 | 50.0 | 0.0 | 0.5 | 50.0 | 
C[C@H]1[C@@H](OCC(F)(F)F)O[C@@H]2O[C@@]3(C)CC[C@H]4[C@H](C)CC[C@@H]1[C@@]24OO3 [Example 1-22, (3R,5aS,6R,8aS,9R,10S,12R,12aR)-3,6,9-Trimethyl-10-(2,2,2-trifluoroethoxy)decahydro-12H-3,12-epoxypyrano[4,3-j][1,2]benzodioxepine] | 26.7 | 216.0 | 90.9 | 87.0 | 12.5 | 100.0 | 0.0 | 0.5 | 0.0 | 50.0 | 0.5 | 50.0 | 0.0 | 0.5 | 0.0 | 
C[C@H]1[C@H](OC(=O)CCC(=O)O)O[C@@H]2O[C@@]3(C)CC[C@H]4[C@H](C)CC[C@@H]1[C@@]24OO3 [Example 1-32, artesunate, reference compound] | 21.0 | 597.5 | 9.4 | 12.4 | 355.5 | 6.0 | 90.6 | 9.0 | 100.0 | 21.2 |  | 53.3 | 0.0 | 1.0 | 25.0 | KLS-positive rate (Table 3, compound 0.1 μM): 36.3%; Viable cell count (Table 3, compound 0.1 μM): 1065.5 cell; mCherry-positive rate (Table 3, compound 0.1 μM): 23.59%; KLS-positive rate (Table 3, compound 0.3 μM): 46.4%; Viable cell count (Table 3, compound 0.3 μM): 540 cell; mCherry-positive rate (Table 3, compound 0.3 μM): 35.1%; KLS-positive rate (Table 3, compound 1 μM): 45.3%; Viable cell count (Table 3, compound 1 μM): 266 cell; mCherry-positive rate (Table 3, compound 1 μM): 91.2%; KLS-positive rate (Table 3, compound 3 μM): 0%; Viable cell count (Table 3, compound 3 μM): 0.5 cell; mCherry-positive rate (Table 3, compound 3 μM): 50%; KLS-positive rate (Table 3, compound 10 μM): 0%; Viable cell count (Table 3, compound 10 μM): 0.5 cell; mCherry-positive rate (Table 3, compound 10 μM): 0%
CC(=O)N[C@@H]1O[C@@H]2O[C@@]3(C)CC[C@H]4[C@H](C)CC[C@@H]([C@H]1C)[C@@]24OO3 [Example 1-10, N-[(3R,5aS,6R,8aS,9R,10R,12R,12aR)-3,6,9-Trimethyldecahydro-12H-3,12-epoxypyrano[4,3-j][1,2]benzodioxepin-10-yl]acetamide] | 19.7 | 717.5 | 6.5 | 23.1 | 387.0 | 16.5 | 32.9 | 325.5 | 9.1 | 33.1 | 579.0 | 38.5 | 53.1 | 46.5 | 99.3 | 
C[C@H]1[C@@H](Oc2ccccc2)O[C@@H]2O[C@@]3(C)CC[C@H]4[C@H](C)CC[C@@H]1[C@@]24OO3 [Example 1-21, (3R,5aS,6R,8aS,9R,10S,12R,12aR)-3,6,9-trimethyl-10-phenoxydecahydro-12H-3,12-epoxypyrano[4,3-j][1,2]benzodioxepine] | 0.0 | 0.0 | 0.0 | 0.0 | 2.0 | 50.0 | 0.0 | 0.5 | 0.0 | 0.0 | 0.5 | 50.0 | 0.0 | 0.5 | 50.0 | 
C[C@H]1[C@H](Oc2ccccc2)O[C@@H]2O[C@@]3(C)CC[C@H]4[C@H](C)CC[C@@H]1[C@@]24OO3 [Example 1-25, (3R,5aS,6R,8aS,9R,10R,12R,12aR)-3,6,9-trimethyl-10-phenoxydecahydro-12H-3,12-epoxypyrano[4,3-j][1,2]benzodioxepine] | 40.0 | 181.5 | 52.3 | 0.0 | 0.5 | 0.0 | 0.0 | 0.0 | 0.0 | 50.0 | 0.5 | 50.0 | 0.0 | 0.0 | 0.0 | 
